Measured values reported in BindingDB's records for doi:10.1021/jm800555h (The Scripps Research Institute, 2008).

Assays:
[1] = target: Bifunctional purine biosynthesis protein ATIC (Homo sapiens, UniProt P31939); experiment: AICAR Tfase Inhibition Assay; settings: pH 7.4; 26 °C
Excerpt: Recombinant human AICAR Tfase was used in the inhibition assay. The reaction was monitored at 298 nm by measuring the increase in absorbance corresponding to the formation of THF. The THF was generated in the transfer reaction of the formyl group from cofactor to AICAR to produce 5-formyl-AICAR. Double reciprocal plots were used to determine the Ki values.

[2] = target: T1, Trifunctional purine biosynthetic protein adenosine-3 (Homo sapiens, UniProt P22102); experiment: GAR Tfase Activity Assay; settings: pH 7.5; 26 °C
T1 sequence (P22102 whole entry): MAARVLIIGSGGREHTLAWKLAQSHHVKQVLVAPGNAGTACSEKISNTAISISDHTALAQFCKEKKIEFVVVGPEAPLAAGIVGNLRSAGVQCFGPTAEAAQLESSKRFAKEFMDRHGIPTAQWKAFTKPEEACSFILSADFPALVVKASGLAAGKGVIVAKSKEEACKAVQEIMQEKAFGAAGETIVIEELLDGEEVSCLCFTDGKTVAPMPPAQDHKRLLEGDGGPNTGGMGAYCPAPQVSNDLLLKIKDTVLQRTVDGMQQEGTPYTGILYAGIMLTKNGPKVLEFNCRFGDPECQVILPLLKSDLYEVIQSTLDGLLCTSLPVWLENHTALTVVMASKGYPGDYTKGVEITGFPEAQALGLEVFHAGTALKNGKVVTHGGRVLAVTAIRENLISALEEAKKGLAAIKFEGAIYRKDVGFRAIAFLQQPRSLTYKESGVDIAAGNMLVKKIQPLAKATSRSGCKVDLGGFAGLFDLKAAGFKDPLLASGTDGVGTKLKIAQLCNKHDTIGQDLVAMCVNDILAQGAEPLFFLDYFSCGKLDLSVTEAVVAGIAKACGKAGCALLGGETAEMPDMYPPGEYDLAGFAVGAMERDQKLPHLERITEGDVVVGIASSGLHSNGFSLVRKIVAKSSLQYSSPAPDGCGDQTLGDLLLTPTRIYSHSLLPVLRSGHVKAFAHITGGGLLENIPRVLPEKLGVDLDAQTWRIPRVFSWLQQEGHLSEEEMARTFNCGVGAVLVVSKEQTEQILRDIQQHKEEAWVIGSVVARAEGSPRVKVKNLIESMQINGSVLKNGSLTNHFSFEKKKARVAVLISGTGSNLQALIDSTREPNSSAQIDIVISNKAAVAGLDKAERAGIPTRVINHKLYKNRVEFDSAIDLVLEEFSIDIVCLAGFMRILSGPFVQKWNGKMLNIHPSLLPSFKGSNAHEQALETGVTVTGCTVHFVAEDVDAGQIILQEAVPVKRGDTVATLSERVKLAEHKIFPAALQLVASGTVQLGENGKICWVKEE

Bifunctional purine biosynthesis protein ATIC, sequence (P31939 whole entry): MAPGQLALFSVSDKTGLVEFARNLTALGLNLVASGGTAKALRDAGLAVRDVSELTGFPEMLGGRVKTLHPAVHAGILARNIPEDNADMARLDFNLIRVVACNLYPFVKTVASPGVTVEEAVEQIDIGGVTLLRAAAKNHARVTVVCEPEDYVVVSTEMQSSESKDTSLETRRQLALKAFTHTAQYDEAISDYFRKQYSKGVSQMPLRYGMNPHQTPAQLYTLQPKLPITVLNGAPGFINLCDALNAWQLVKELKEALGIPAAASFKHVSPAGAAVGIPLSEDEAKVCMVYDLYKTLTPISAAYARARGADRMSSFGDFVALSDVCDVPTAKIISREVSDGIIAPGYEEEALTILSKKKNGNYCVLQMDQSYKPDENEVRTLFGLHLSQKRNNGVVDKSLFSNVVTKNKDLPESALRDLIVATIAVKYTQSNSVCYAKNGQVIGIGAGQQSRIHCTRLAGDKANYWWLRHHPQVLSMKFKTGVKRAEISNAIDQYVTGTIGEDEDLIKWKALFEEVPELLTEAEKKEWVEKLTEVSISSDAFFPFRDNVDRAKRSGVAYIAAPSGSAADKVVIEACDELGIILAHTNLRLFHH

Row | Compound | Ki [1] | Ki [2]
1 | CO[C@H](CCCc1c(N)nc(N)[nH]c1=O)c1ccc(C(=O)NC(CCC(=O)O)C(=O)O)cc1 (stereo partly drawn) [2-({4-[(1R)-4-(2,4-diamino-6-oxo-1,6-dihydropyrimidin-5-yl)-1-methoxybutyl]phenyl}formamido)pentanedioic acid] | > 100 µM | 
2 | CS[C@@H](CCCc1c(N)nc(N)[nH]c1=O)c1ccc(C(=O)NC(CCC(=O)O)C(=O)O)cc1 (some centres not stated) [10S (7)] | > 100 µM | 
3 | Nc1nc(N)c(CCC[C@@H](O)c2ccc(C(=O)NC(CCC(=O)O)C(=O)O)cc2)c(=O)[nH]1 (stereo partly drawn) [2-({4-[(1R)-4-(2,4-diamino-6-oxo-1,6-dihydropyrimidin-5-yl)-1-hydroxybutyl]phenyl}formamido)pentanedioic acid] | > 100 µM | 1.1 µM
4 | CS[C@H](CCCc1c(N)nc(N)[nH]c1=O)c1ccc(C(=O)NC(CCC(=O)O)C(=O)O)cc1 (some centres not stated) [10R (8)] | > 100 µM | 
5 | Nc1nc(N)c(CCC[C@H](O)c2ccc(C(=O)NC(CCC(=O)O)C(=O)O)cc2)c(=O)[nH]1 (stereo partly drawn) [2-({4-[(1S)-4-(2,4-diamino-6-oxo-1,6-dihydropyrimidin-5-yl)-1-hydroxybutyl]phenyl}formamido)pentanedioic acid] | > 100 µM | 
6 | CO[C@@H](CCCc1c(N)nc(N)[nH]c1=O)c1ccc(C(=O)NC(CCC(=O)O)C(=O)O)cc1 (stereo partly drawn) [2-({4-[(1S)-4-(2,4-diamino-6-oxo-1,6-dihydropyrimidin-5-yl)-1-methoxybutyl]phenyl}formamido)pentanedioic acid] | > 100 µM | 
